Data on 3 compounds can be found in patent US8334266B2, “Process for and intermediates in the preparation of canfosfamide and its salts” (Telik, Inc., priority 2004, dated 2012).

Structures are written as SMILES. Structures can show the parent of a compound that is named as a salt.

Series [1] has as its system ovarian, breast, non-small cell lung, and colorectal cancers. As to conditions: cited from earlier work.
In series [2] the test system is HL-60 (promyeloid myelocytic leukemia). How it is done: (§1) The human cancer cell lines HL-60 (promyeloid myelocytic leukemia) and MX-1 (breast carcinoma) were obtained from the National Cancer Institute, Bethesda, Md., U.S.A. The CellTiter-Glo assay kit was obtained from Promega Corporation, Madison, Wis., U.S.A, and was used in accordance with the manufacturer's directions. All assays were conducted in triplicate wells, with dimethyl sulfoxide (DMSO) solvent control. The extent of cell growth was expressed as a percentage of the signal from the solvent control wells.
(§2) Log-phase cells were trypsinized, collected by centrifugation, and resuspended in a small volume of fresh medium, and the density of viable cells was determined following Trypan Blue staining. Cells were diluted in fresh media (5×10^3 cells/mL for HL-60 and 3×10^3 cells/mL for MX-1 cells), Compound 4A (concentrations between 0.1 and 200 μM, dissolved in DMSO, 50 μL) added immediately after dilution to achieve a final DMSO concentration of 0.5%, then the suspensions added at 150 μL/well to 96-well plates, and incubated for several hours to allow attachment in the case of adherent cells. The cells were cultured for approximately three doubling times (3 days). The cells were then collected by centrifugation, and 100 μL of the culture supernatant was replaced by the CellTiter-Glo reagent. After incubation for 15 minutes at room temperature, and the plate was read with a luminometer.

The next series concerns MX-1 (breast carcinoma). The following applies: MX-1, cultured 3 days, CellTiter-Glo. On the procedure:
as §1, §2
Background: In ATP-based viability assays light output follows the ATP content of the culture.

The subject of series [3] is M6709 human colon carcinoma cell line selected for resistance to doxorubicin. The following applies: resistant line overexpresses GST P1-1; cited from earlier work.
Series [4] deals with MCF-7 human breast carcinoma cell line selected for resistance to cyclophosphamide. The following applies: resistant line overexpresses GST P1-1; cited from earlier work.
In series [5] the test system is M7609 engineered to have high, medium, and low levels of GST P1-1. As to conditions: murine xenografts; cited from earlier work.
Series [6] relates to in vitro cell culture and tumor biopsies. As to conditions: cited from earlier work.

As to `N[C@@H](CCC(=O)N[C@@H](CS(=O)(=O)CCOP(=O)(N(CCCl)CCCl)N(CCCl)CCCl)C(=O)N[C@@H](C(=O)O)c1ccccc1)C(=O)O` [Canfosfamide hydrochloride], in series [1] (patients treated), the hematological toxicity entry is “very low incidence of clinically significant hematological toxicity”. Besides, in series [1] (single agent, colorectal and breast cancer), the antitumor activity entry is “single agent antitumor activity”. Further, the “antitumor activity and survival” value in series [1] (single agent, patients with non-small cell lung cancer and ovarian cancer) is “significant single agent antitumor activity and improvement in survival”.

`O=C(CC[C@H](NC(=O)OCc1ccccc1)C(=O)O)N[C@@H](CS(=O)(=O)CCOP(=O)(N(CCCl)CCCl)N(CCCl)CCCl)C(=O)N[C@@H](C(=O)O)c1ccccc1` [Compound 4A, N-α-(benzyloxycarbonyl)-L-γ-glutamyl-3-[[2-[[bis[bis(2-chloroethyl)amino]phosphinyl]oxy]-ethyl]sulfonyl]-L-alanyl-2-phenyl-(2R)-glycine]: the IC50 in series [2] (HL-60, cultured 3 days, CellTiter-Glo) came to 2.2 µM; in the series on MX-1 (breast carcinoma), 34.6 µM. In series [2] (in this assay (HL-60 and MX-1 cell lines)), the “potency compared with canfosfamide” value is given as “approximately as potent as canfosfamide”.

Take `N[C@@H](CCC(=O)N[C@@H](CS(=O)(=O)CCOP(=O)(N(CCCl)CCCl)N(CCCl)CCCl)C(=O)N[C@@H](C(=O)O)c1ccccc1)C(=O)O` [canfosfamide, L-γ-glutamyl-3-[[2-[[bis[bis(2-chloroethyl)amino]phosphinyl]oxy]ethyl]sulfonyl]-L-alanyl-2-phenyl-(2R)-glycine]: the “potency relative to parental cell line” value in series [3] and in series [4] was “more potent” each time. The “potency in relation to GST P1-1 level” value in series [5] is on record as “positively correlated with the level of GST P1-1”. Also, the “cross-resistance to platinum, paclitaxel, doxorubicin and gemcitabine” value in series [6] was “non-cross-resistant”.

For orientation: IC50 means the concentration that gives 50% inhibition. A higher IC50 goes with weaker potency.
